Experimental findings from patent US9586963B2 (GENFIT, priority 2011, dated 2017) are described below.

As a reminder, the EC50 is the concentration needed to bring the measured effect to its halfway point.

This test deals with T1, Rev-Erb alpha (Homo sapiens, UniProt P20393).
T1 sequence (P20393 284-614 limits assumed): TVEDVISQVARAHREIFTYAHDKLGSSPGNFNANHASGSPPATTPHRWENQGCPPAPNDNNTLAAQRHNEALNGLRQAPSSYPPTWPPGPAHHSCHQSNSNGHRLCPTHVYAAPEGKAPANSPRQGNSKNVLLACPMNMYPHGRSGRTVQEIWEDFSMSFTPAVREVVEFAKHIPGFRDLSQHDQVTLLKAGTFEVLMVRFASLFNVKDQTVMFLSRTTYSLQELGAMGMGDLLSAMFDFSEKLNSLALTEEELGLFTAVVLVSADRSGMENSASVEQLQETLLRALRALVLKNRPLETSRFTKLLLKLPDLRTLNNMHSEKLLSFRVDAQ
As to the kind of experiment: M2H (mammalian two-hybrid) cellular activation assay of Rev-Erb alpha. Format: cell-based. The conditions noted are these: M2H assay, HEK293 cells; for EC50: Gal4-Rev-Erb alpha / VP16-NCoR, luciferase reporter; for Emax: relative to DMSO, at the tested dose, read-out: TOP activation. Here is the method: In this system, Rev-Erb alpha or Rev-Erb beta is expressed as a fusion to the Gal4 DNA-binding domain and the cofactor NCoR is expressed as a fusion to the activation domain of the Herpes Simplex Virus tegument protein VP16. These fusion proteins were included in plasmids at a concentration of 1 μg/μL. The pBS-SK+ vector was added to the preparation to adjust the DNA quantity to a fixed value for each condition.
The transfection mix (Jet-PEI protocol, Polyplus transfection) comprised: • 3 mL of Jet PEI Mix (180 μL Jet-Pei and NaCl at 150 mM) and • 3 mL of the DNA Mix or of the DNA Mix control (wherein the Gal4-Rev-Erb alpha plasmid was replaced by a pGal4phi plasmid).
DNA Mix comprised 1.2 mL of DNA and 1.8 mL of NaCl at 150 mM with, in a T225 flask: • 90 ng of Gal4-Rev-Erb alpha, or 90 ng of Gal4-Rev-Erb beta, • 4500 ng of VP16-NCoR, • 27000 ng of Gal4-RE and • 13410 ng of pBS-SK+. Cells
HEK293 cells were cultured in DMEM (Invitrogen 41965) comprising 10% FBS, P/S, 1% glutamine, 1% pyruvate (Invitrogen 11360) and 1% amino acids (Invitrogen 11140). Cells were then batch co-transfected with plasmid vectors (described in the table above) using as Jet-PEI as reagent (Polyplus) following the protocol specified below.
The 6 mL-transfection mix was transferred in a T225 flask. HEK293 cells were then added at a concentration of 12 Millions of cells for 54 mL of medium (DMEM comprising 10% FBS and 1% P/S). Cells incubated over-night at 37° C. and under 5% CO2.
This cell-based assay is performed using 384-well Greiner white plates (Reference 781080). After the incubation, cells were rinsed with PBS, trypsinized, centrifuged and resuspended in free-serum DMEM without phenol red (Invitrogen 31053). Cells were counted and adjusted to 0.5 Million per mL and plated at a concentration of 10,000 cells in 20 μL per well. They were incubated a minimum of 4 hours at 37° C. under 5% CO2. Cells were treated with 20 μL of the compound to analyze (concentration of 2× diluted in DMEM without FBS containing a maximum of 1% DMSO) and incubated over-night (18 hours, 37° C. and 5% CO2). Each compound has been tested at 6 different concentrations to depict a dose-effect allowing the measure of biochemical parameters such as EC50 and TOP activation (%).
Cells were incubated 30 minutes with 40 μL/well of Steady Glow (Promega) and luminescence was read with TECAN Genios Pro (100 ms/w). Four experiments were carried out for each compound.
Each compound has been tested at 6 different concentrations to depict a dose-effect allowing the measure of biochemical parameters such as EC50 and TOP activation (%).
The mammalian two-hybrid system (M2H) assay consists herein in studying the ability of compounds according to the invention to activate Rev-Erbalpha in cells and thus modulate the interaction with its corepressor. The interaction of the two proteins is assessed with the help of the Luciferase reporter gene. HEK293 cells were transfected with two gene constructions: Gal4-RE VP16-NCoR and Gal4-Rev-Erbalpha or with Gal4-RE, sVP16-NCoR and Gal4-Rev-Erb beta.
The ability of compounds according to the invention of activating Rev-Erbalpha alpha or Rev-Erb beta was assessed in the described cell-based assay. EC50 and TOP activation (%) were measured.

Counter-ions that a name gives are not always drawn. A value given as a limit tells only on which side of the number the result lay.

In turn, `Cc1ncccc1-c1ccc(C(F)(F)F)cc1Oc1ccc2nnc(Cl)n2n1` [Cpd.4-123, 3-chloro-6-(2-(2-methylpyridin-3-yl)-5-(trifluoromethyl)phenoxy)-[1,2,4]triazolo[4,3-b]pyridazine] had an EC50 of 100 to 1000 nM.
For the compound `CN1CCN(Cc2ccc(C(F)(F)F)cc2Oc2ccc3nnc(Cl)n3n2)CC1` [Cpd.4-124, 3-chloro-6-(2-((4-methylpiperazin-1-yl)methyl)-5-(trifluoromethyl)phenoxy)-[1,2,4]triazolo[4,3-b]pyridazine], the EC50 is above 6000 nM and the Emax is above 130%.
On to `COc1ncc(-c2ccc(C(F)(F)F)cc2Oc2ccc3nnc(Cl)n3n2)cn1` [Cpd.4-127, 3-chloro-6-((2-(2-methoxypyrimidin-5-yl))-5-(trifluoromethyl)phenoxy)-[1,2,4]triazolo[4,3-b]pyridazine], for which the concentration giving a half-maximal response (EC50) lay within 1000 to 6000 nM.
Still for that read-out and setting: to `CC(C)c1ncncc1-c1ccc(C(F)(F)F)cc1Oc1ccc2nnc(Cl)n2n1` [Cpd.4-128, 3-chloro-6-((2-(4-isopropylpyrimidin-5-yl))-5-(trifluoromethyl)phenoxy)-[1,2,4]triazolo[4,3-b]pyridazine] belongs 1000 to 6000 nM; to `FC(F)(F)c1cccc(Oc2ccc3nnc(Cl)n3n2)c1-c1cccnc1` [Cpd.4-129, 3-chloro-6-(2-(pyridin-3-yl)-3-(trifluoromethyl)phenoxy)-[1,2,4]triazolo[4,3-b]pyridazine], 1000 to 6000 nM; to `Cc1cccc(-c2ccccc2Oc2ccc3nnc(C(F)(F)F)n3n2)c1` [Cpd.4-133, 3-(trifluoromethyl)-6-(3′-methylbiphenyl-2-yloxy)-[1,2,4]triazolo[4,3-b]pyridazine], 100 to 1000 nM.
Same read-out and setting: the figure for `O=[N+]([O-])c1ccc(Oc2ccc3nnc(Cl)n3n2)c(-c2ccccc2)c1` [Cpd.4-134, 3-chloro-6-(5-nitrobiphenyl-2-yloxy)-[1,2,4]triazolo[4,3-b]pyridazine] is 1000 to 6000 nM; for `Cc1cccc(-c2cc(F)ccc2Oc2ccc3nnc(C(F)(F)F)n3n2)c1` [Cpd.4-136, 3-(trifluoromethyl)-6-(5-fluoro-3′-methylbiphenyl-2-yloxy)-[1,2,4]triazolo[4,3-b]pyridazine] it is 100 to 1000 nM; for `Cc1ccc(-c2cc(F)ccc2Oc2ccc3nnc(C(F)(F)F)n3n2)cc1` [Cpd.4-142, 3-(trifluoromethyl)-6-(5-fluoro-4′-methylbiphenyl-2-yloxy)-[1,2,4]triazolo[4,3-b]pyridazine] it is 1000 to 6000 nM.
As to `Cc1ccc(-c2cc(F)ccc2Oc2ccc3nnc(Cl)n3n2)cc1` [Cpd.4-143, 3-chloro-6-(5-fluoro-4′-methylbiphenyl-2-yloxy)-[1,2,4]triazolo[4,3-b]pyridazine], the EC50 was in the range of 100 to 1000 nM.
The same measure, in the same setting: to `Oc1cccc(-c2cc(F)c(F)cc2Oc2ccc3nnc(Cl)n3n2)c1` [Cpd.4-153, 3-chloro-6-(4,5-difluoro-3′-hydroxybiphenyl-2-yloxy)-[1,2,4]triazolo[4,3-b]pyridazine] belongs 1000 to 6000 nM; to `OCc1ccc(-c2ccccc2)c(Oc2ccc3nnc(Cl)n3n2)c1` [Cpd.4-155, 3-chloro-6-(4-(hydroxymethyl)biphenyl-2-yloxy)-[1,2,4]triazolo[4,3-b]pyridazine], 1000 to 6000 nM.
As for `CCN(CC)Cc1ccc(Oc2ccc3nnc(Cl)n3n2)c(-c2ccccc2)c1` [Cpd.4-157, 3-chloro-6-(5-diethylaminomethylbiphenyl-2-yloxy)-[1,2,4]triazolo[4,3-b]pyridazine], the EC50 was above 6000 nM and the Emax was above 130%.
As for `CN1CCN(Cc2ccc(Oc3ccc4nnc(Cl)n4n3)c(-c3ccccc3)c2)CC1` [Cpd.4-159, 3-chloro-6-(5-(4-methylpiperazin-1-ylmethyl)biphenyl-2-yloxy)-[1,2,4]triazolo[4,3-b]pyridazine], the EC50 was above 6000 nM and the Emax was above 130%.
`Clc1nnc2ccc(Oc3ccc(CNC4CCCC4)cc3-c3ccccc3)nn12` [Cpd.4-160, 3-chloro-6-(5-(cyclopentylaminomethyl)biphenyl-2-yloxy)-[1,2,4]triazolo[4,3-b]pyridazine] showed an EC50 of 1000 to 6000 nM.
Take `Clc1nnc2ccc(Oc3ccc(CNCC4CCCO4)cc3-c3ccccc3)nn12` (centres unmarked) [Cpd.4-163, 3-chloro-6-(5-(tetrahydrofurfurylaminomethyl)biphenyl-2-yloxy)-[1,2,4]triazolo[4,3-b]pyridazine]: the EC50 is above 6000 nM and the Emax was above 130%.
`CS(=O)(=O)N1CCN(Cc2ccc(Oc3ccc4nnc(Cl)n4n3)c(-c3ccccc3)c2)CC1` [Cpd.4-164, 3-chloro-6-(5-(4-methanesulfonyl-piperazin-1-ylmethyl)biphenyl-2-yloxy)-[1,2,4]triazolo[4,3-b]pyridazine] returned an EC50 of 1000 to 6000 nM.
Still for that read-out and setting: to `FC(F)(F)c1ccc(-c2cccc(CNC3CC3)c2)c(Oc2ccc3nnc(Cl)n3n2)c1` [Cpd.4-168, 3-chloro-6-(4-(trifluoromethyl)-3′-(cyclopropylaminomethyl)biphenyl-2-yloxy)-[1,2,4]triazolo[4,3-b]pyridazine, hydrochloride] belongs 1000 to 6000 nM; to `N#Cc1ccc(-c2ccccc2)c(Oc2ccc3nnc(Cl)n3n2)c1` [Cpd.4-169, 3-chloro-6-(4-cyanobiphenyl-2-yloxy)-[1,2,4]triazolo[4,3-b]pyridazine], 100 to 1000 nM; to `CC(C)(C)OC(=O)NCc1ccc(Oc2ccc3nnc(Cl)n3n2)c(-c2ccccc2)c1` [Cpd.4-170, 3-chloro-6-(5-(tertbutyloxycarbonylaminomethyl)biphenyl-2-yloxy)-[1,2,4]triazolo[4,3-b]pyridazine], 100 to 1000 nM.
On to `NCc1ccc(Oc2ccc3nnc(Cl)n3n2)c(-c2ccccc2)c1` [Cpd.4-171, 3-chloro-6-(5-aminomethylbiphenyl-2-yloxy)-[1,2,4]triazolo[4,3-b]pyridazine, trifluoroacetic acid salt], for which the EC50 was above 6000 nM and the Emax is above 130%.
Take `CC(=O)OCc1ccc(-c2ccccc2)c(Oc2ccc3nnc(Cl)n3n2)c1` [Cpd.4-172, 3-chloro-6-(4-methylcarbonyloxymethylbiphenyl-2-yloxy)-[1,2,4]triazolo[4,3-b]pyridazine]: the EC50 is 100 to 1000 nM.
For `CS(=O)(=O)Nc1ccc(Oc2ccc3nnc(Cl)n3n2)c(-c2ccccc2)c1` [Cpd.4-173, 3-chloro-6-(5-methylsulfonamidobiphenyl-2-yloxy)-[1,2,4]triazolo[4,3-b]pyridazine], the EC50 lay in the range of 1000 to 6000 nM.
Same read-out and setting: to `CC(=O)Nc1ccc(Oc2ccc3nnc(Cl)n3n2)c(-c2ccccc2)c1` [Cpd.4-174, 3-chloro-6-(5-acetamidobiphenyl-2-yloxy)-[1,2,4]triazolo[4,3-b]pyridazine] belongs 1000 to 6000 nM; to `Clc1nnc2ccc(Oc3cc(CNCC4CCCCC4)ccc3-c3ccccc3)nn12` [Cpd.4-176, 3-chloro-6-(4-(cyclohexylmethyl)aminomethylbiphenyl-2-yloxy)-[1,2,4]triazolo[4,3-b]pyridazine], 1000 to 6000 nM.
Take `CN1CCN(Cc2ccc(-c3ccccc3)c(Oc3ccc4nnc(Cl)n4n3)c2)CC1` [Cpd.4-177, 3-chloro-6-(4-(1-methylpiperazin-4-ylmethyl)biphenyl-2-yloxy)-[1,2,4]triazolo[4,3-b]pyridazine]: the EC50 was above 6000 nM and the Emax is above 130%.
